According to ChEMBL document CHEMBL4043218, “Analysis of the binding sites of vitamin D 1α-hydroxylase (CYP27B1) and vitamin D 24-hydroxylase (CYP24A1) for the design of selective CYP24A1 inhibitors: Homology modelling, molecular dynamics simulations and identification of key binding requirements” (Bioorg Med Chem, 2017):

Key:
[1] = target: T1, 25-hydroxyvitamin D-1 alpha hydroxylase, mitochondrial (Homo sapiens, UniProt O15528); test: Inhibition of human CYP27B1
T1 sequence (O15528 whole entry): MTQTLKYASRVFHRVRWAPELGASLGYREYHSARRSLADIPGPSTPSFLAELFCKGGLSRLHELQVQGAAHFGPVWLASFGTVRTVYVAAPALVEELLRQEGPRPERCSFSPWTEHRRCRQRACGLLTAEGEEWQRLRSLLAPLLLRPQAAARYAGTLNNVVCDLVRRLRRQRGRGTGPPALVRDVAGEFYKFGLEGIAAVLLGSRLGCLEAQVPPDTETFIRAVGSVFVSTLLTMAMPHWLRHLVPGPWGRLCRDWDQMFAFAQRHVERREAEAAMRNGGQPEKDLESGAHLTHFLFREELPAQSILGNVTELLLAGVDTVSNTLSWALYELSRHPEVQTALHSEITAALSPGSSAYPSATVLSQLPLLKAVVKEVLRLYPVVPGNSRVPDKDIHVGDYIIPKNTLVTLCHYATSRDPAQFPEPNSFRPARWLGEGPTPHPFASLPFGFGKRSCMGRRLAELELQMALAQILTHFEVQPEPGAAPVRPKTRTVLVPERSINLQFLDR

[2] = species on record: Homo sapiens; test: Selectivity index, ratio of IC50 for human CYP24A1 to IC50 for human CYP27B1
[3] = target: T2, 1,25-dihydroxyvitamin D(3) 24-hydroxylase, mitochondrial (Homo sapiens, UniProt Q07973); test: Inhibition of human CYP24A1
T2 sequence (Q07973 whole entry): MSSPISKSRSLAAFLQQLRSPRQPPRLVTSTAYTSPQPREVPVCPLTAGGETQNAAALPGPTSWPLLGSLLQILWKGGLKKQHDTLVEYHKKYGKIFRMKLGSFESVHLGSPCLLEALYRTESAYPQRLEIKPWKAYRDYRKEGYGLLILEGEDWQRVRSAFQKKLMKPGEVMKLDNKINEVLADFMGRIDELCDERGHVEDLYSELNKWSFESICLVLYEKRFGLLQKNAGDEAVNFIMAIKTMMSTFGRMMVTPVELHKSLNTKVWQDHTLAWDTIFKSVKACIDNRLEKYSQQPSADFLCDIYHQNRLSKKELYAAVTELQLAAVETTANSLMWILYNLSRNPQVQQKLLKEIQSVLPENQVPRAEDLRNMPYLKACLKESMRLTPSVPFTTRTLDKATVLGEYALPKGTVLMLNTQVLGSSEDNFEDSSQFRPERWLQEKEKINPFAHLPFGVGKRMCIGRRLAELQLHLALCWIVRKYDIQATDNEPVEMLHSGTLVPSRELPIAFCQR

[4] = target: T2, 1,25-dihydroxyvitamin D(3) 24-hydroxylase, mitochondrial; test: Inhibition of N-terminal MBP-tagged human CYP24A1 expressed in Escherichia coli assessed as reduction in […] activity incubated for 25 mins using Adx, AdR and 1,25(OH)2D3
[5] = target: T1, 25-hydroxyvitamin D-1 alpha hydroxylase, mitochondrial; test: Inhibition of human CYP27B1 expressed in Escherichia coli assessed as reduction in […] activity incubated for 25 mins using Adx, AdR and […]

| IC50 [1] [nM] | Ratio IC50 [2] | IC50 [3] [nM] | IC50 [4] [nM] | IC50 [5] [nM] | SMILES |
| --- | --- | --- | --- | --- | --- |
| 95.2 | 47 | 4480 |  |  | CN(C)c1cccc2c(S(=O)(=O)NC(Cn3ccnc3)c3ccc(Cl)cc3Cl)cccc12 (configuration not stated) |
|  | 5 |  | 2500 | 570 | Cc1[nH]nc(O)c1C(c1ccc(OCc2ccncc2)cc1)c1c(O)n[nH]c1C |
|  | 5 |  | 2600 | 410 | Cc1[nH]nc(O)c1C(c1cccc(OCc2ccncc2)c1)c1c(O)n[nH]c1C |
| 60.2 | 66 | > 10000 |  |  | CN(C)CCn1nnnc1SCC(O)(Cn1ccnc1)c1ccc(Cl)cc1Cl (configuration not stated) |
